Source: patent US20090312238A1, “Protection Against Oxidative Damage in Cells” (Florida Atlantic University, priority 2006, published 2009)

How the values were obtained:
bMsrA = biological target: T1, bMsrA (Bos taurus, UniProt P54149); experiment: Colorimetric assay for Msr activity based on the reduction of DABS-met(o); format: biochemical, bovine
T1 construct: made in house; host or cells: E. coli
T1 sequence (P54149 21-233): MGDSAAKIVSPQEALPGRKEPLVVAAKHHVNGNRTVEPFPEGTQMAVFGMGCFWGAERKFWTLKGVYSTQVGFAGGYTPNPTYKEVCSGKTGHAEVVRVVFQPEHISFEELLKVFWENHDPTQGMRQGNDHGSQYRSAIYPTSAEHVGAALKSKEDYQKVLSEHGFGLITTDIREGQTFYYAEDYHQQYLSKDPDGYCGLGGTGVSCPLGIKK
Procedure: (§1) The reaction mixture (200 μl) to measure Msr activity contained 100 mM Tris-Cl pH 7.4, 100 nmoles of the indicated DABS-met(o) epimer (see Materials), either 15 mM DTT or the Trx regenerating system (Trx, 10 μg, Trx reductase, 2.4 μg, NADPH, 500 μM) and Msr enzyme as indicated. When the liver fractions (Zn-MT, T or T(o)) were tested, DTT was omitted and the Trx reducing system and 5 mM EDTA were added as indicated. Incubations were for 60 minutes at 37° C. unless noted otherwise. […] The quantitation of DABS-met formed employed a slight modification of an extraction procedure previously described by Etienne et al (Etienne, F., Resnick, L., Sagher, D., Brot, N. & Weissbach, H. (2003) Biochem Biophys Res Commun 312, 1005-1010) for the reduction of sulindac to sulindac sulfide by MsrA. The reactions were stopped by the addition of 200 μl of 1 M sodium acetate pH 6.0, followed by the addition of 100 μL of acetonitrile and 1 ml of benzene. After thorough shaking and centrifugation, the optical density of the benzene layer was read at 436 nm. […] Unless indicated otherwise, the results are presented as nmoles DABS-met formed in 60 minutes.

hMsrB2 = biological target: T2, hMsrB2 (Homo sapiens, UniProt Q9Y3D2); experiment: as above; format: biochemical; conditions: for nmoles DABS-met: hMsrB2 2.7 μg
T2 construct: made in house; host or cells: E. coli
T2 sequence (Q9Y3D2 21-182): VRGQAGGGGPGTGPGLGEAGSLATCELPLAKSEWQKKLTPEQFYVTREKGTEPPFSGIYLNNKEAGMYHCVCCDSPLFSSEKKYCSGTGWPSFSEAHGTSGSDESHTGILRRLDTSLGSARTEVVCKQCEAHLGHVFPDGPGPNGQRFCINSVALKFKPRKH
Procedure: as §1

hMsrB3 = biological target: T3, hMsrB3 (Homo sapiens, UniProt Q8IXL7); experiment: as above; format: biochemical; conditions: for activity of chelating agent in place of EDTA with Zn-MT: EGTA 5 or 20 mM, deferoxamine 5 mM, zincon 500 μM
T3 construct: made in house; host or cells: BL21 E. coli
T3 sequence (Q8IXL7 33-192): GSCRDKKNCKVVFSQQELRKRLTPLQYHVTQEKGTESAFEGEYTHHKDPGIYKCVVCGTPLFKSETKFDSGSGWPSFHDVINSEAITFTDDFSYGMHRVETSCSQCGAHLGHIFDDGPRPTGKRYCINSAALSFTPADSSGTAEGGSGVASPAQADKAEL
Procedure: as §1

eMsrA = biological target: T4, eMsrA (Escherichia coli, UniProt P0A744); experiment: as above; format: biochemical, E. coli; conditions: for nmoles DABS-met: eMsrA 1.6 μg
T4 construct: made in house; host or cells: E. coli
T4 sequence (P0A744 whole entry): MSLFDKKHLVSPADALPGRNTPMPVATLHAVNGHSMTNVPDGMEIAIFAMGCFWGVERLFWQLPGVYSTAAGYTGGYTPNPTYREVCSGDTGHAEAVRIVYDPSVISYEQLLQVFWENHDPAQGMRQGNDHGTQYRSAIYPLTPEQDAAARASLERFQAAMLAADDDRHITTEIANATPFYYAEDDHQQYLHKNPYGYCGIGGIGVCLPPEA
Procedure: as §1

eMsrB [1] = biological target: T5, eMsrB (Escherichia coli, UniProt P0A746); experiment: as above; format: biochemical, E. coli
T5 construct: made in house; host or cells: E. coli
Procedure: as §1

eMsrB [2] = biological target: T6, eMsrB (Escherichia coli, UniProt P0A746); experiment: as above; format: biochemical, E. coli; remark: listed apart in the source
T6 construct: made in house; host or cells: E. coli
T6 sequence (P0A746 whole entry, looked up): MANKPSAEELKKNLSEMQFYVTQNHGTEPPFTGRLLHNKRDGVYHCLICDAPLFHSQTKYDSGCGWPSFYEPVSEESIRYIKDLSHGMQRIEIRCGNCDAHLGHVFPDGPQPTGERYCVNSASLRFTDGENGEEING
Procedure: as §1

T(o) = biological target: T7, T(o) (Bos taurus, UniProt P68301); experiment: Reduction of T(o) by Trx, oxidation of NADPH followed at 340 nm; format: biochemical, bovine; conditions: FIG. 4; 100 μM NADPH, 26 μg Trx, 6 μg TrxB, 28 μg partially-oxidized T
T7 construct: Fresh bovine liver was homogenized in 3 volumes of 50 mM Tris, pH 7.4; from tissue; host or cells: bovine liver
T7 sequence (P68301 whole entry): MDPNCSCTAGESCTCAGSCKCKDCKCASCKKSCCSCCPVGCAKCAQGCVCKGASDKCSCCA
Procedure: To study the reduction of T(o) by Trx, the reaction mixtures contained, in a total volume of 1 ml, 100 μM NADPH, 26 μg Trx, 6 μg TrxB and 28 μg of partially-oxidized T (see above). The oxidation of NADPH was followed at 340 nm at room temperature.

Zn-MT = conditions: appearance of free SH groups
Procedure: Briefly, purified Zn-MT was dialyzed against 10 mM HCl (pH 2.0) containing 150 mM NaCl for 12 hours at 4° C. The protein after dialysis is reduced, metal-free T and appears stable when left at pH 2.0. To study the activity of T in the Msr system, T was neutralized and added to the reaction mixtures immediately before the incubations were initiated. To oxidize T, 0.75 volumes of 50 mM Tris base were added to the T sample to bring the pH to 8.5. Under these conditions, approximately 50% of the sulfhydryls will become oxidized after 4 hours at room temperature or 2 hours at 37° C. With longer incubations, the T(o) started to precipitate.

MsrA = biological target: T8, MsrA (Rattus norvegicus, UniProt Q923M1); experiment: MsrA activity in cardiomyocytes, reduction of sulindac to sulindac sulfide; format: cell-based; conditions: for amount of product (sulindac sulfide): primary neonatal rat cardiomyocytes, 400 μM sulindac
T8 construct: endogenous in cells; host or cells: primary neonatal rat cardiomyocytes
T8 sequence (Q923M1 21-233): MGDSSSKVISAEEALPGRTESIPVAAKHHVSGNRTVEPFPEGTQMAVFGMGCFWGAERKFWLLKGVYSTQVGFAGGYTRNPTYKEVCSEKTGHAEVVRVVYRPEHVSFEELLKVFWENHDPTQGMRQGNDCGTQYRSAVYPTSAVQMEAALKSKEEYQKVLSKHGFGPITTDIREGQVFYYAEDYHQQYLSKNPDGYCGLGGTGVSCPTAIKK
Procedure: FIG. 10 is a graph showing selenocystamine (SeCm) can enhance MsrA activity in cardiomyocytes. Cardiomyocytes were incubated with 400 μM sulindac and indicated concentration of selenocystamine. Briefly, primary neonatal rat cardiomyocytes (approximately 10^6 cells per treatment) were incubated with sulindac and two different concentrations of selenocystamine. Sulindac is a substrate for MsrA, and the amount of the reduced product, sulindac sulfide, indicates the amount of MsrA activity. The amount of product is 2.7, 3.7 and 5.6 picomoles for 0, 5 μM and 50 μM selenocystamine, respectively. This amounts to a 37% and 107% stimulation.

Msr enzymes = experiment: Msr activity assay, statements on the Msr enzymes as a group; format: biochemical; conditions: no Trx system or T
Procedure: as §1

[3] = Table 1, bMsrA 2 μg, DABS-met-S-(o), 15 mM DTT or Trx regenerating system, 60 minutes at 37° C.
[4] = Table 1, DABS-met-R-(o), 15 mM DTT or Trx regenerating system, 60 minutes at 37° C.
[5] = Table 2, 20 nmoles Zn-MT with 5 mM EDTA, or 15 mM DTT
[6] = Table 1, hMsrB3 2.3 μg, DABS-met-R-(o), 15 mM DTT or Trx regenerating system, 60 minutes at 37° C.
[7] = Table 1, DABS-met-S-(o), 15 mM DTT or Trx regenerating system, 60 minutes at 37° C.
[8] = Table 1, eMsrB 2.7 μg, DABS-met-R-(o), 15 mM DTT or Trx regenerating system, 60 minutes at 37° C.
[9] = mammalian Trx and mammalian Trx reductase

O[C@@H](CS)[C@@H](O)CS [DTT, reference compound]
nmoles DABS-met (bMsrA; [3]): 30.0 nmol
nmoles DABS-met (bMsrA; Table 2, bMsrA 2.0 μg, 20 nmoles Zn-MT with 5 mM EDTA, or 15 mM DTT): 38.9 nmol
nmoles DABS-met (hMsrB2; [4]): 31.3 nmol
nmoles DABS-met (hMsrB2; [5]): 27.1 nmol
nmoles DABS-met (hMsrB3; [6]): 53.8 nmol
nmoles DABS-met (hMsrB3; Table 2, hMsrB3 2.3 μg, 20 nmoles Zn-MT with 5 mM EDTA, or 15 mM DTT): 53.7 nmol
nmoles DABS-met formed (hMsrB3; experiment of Table 3, hMsrB3 2.3 μg, 15 mM DTT): 52.7 nmol
nmoles DABS-met (eMsrA; [7]): 46.2 nmol
nmoles DABS-met (eMsrA; [5]): 45.7 nmol
nmoles DABS-met (eMsrB [1]; [8]): 11.1 nmol
nmoles DABS-met (eMsrB [1]; Table 2, eMsrB 5.4 μg, 20 nmoles Zn-MT with 5 mM EDTA, or 15 mM DTT): 27.8 nmol

Trx: thioredoxin overexpressed and purified from E. coli; used as Trx regenerating system with Trx reductase and NADPH
Ratio Trx/DTT (bMsrA; Table 1, bMsrA): 0.53
nmoles DABS-met (bMsrA; [3]): 15.8 nmol
Ratio Trx/DTT (hMsrB2; Table 1, hMsrB2): 0.03
nmoles DABS-met (hMsrB2; [4]): 0.8 nmol
activity with Trx relative to the activity seen with DTT (hMsrB2; hMsrB2): less than 10%
Ratio Trx/DTT (hMsrB3; Table 1, hMsrB3): 0.03
nmoles DABS-met (hMsrB3; [6]): 1.7 nmol
nmoles DABS-met (hMsrB3; Table 3 line 2, hMsrB3 2.3 μg, no T(o), Trx + NADPH + Trx reductase): 2.4 nmol
activity with Trx relative to the activity seen with DTT (hMsrB3; hMsrB3): less than 10%
Ratio Trx/DTT (eMsrB [2]; Table 1, eMsrB): 5.4
nmoles DABS-met (eMsrB [2]; [8]): 60.3 nmol
Ratio Trx/DTT (eMsrA; Table 1, eMsrA): 1.0
nmoles DABS-met (eMsrA; [7]): 46.8 nmol
oxidation of NADPH (T(o)): dependent on Trx, Trx reductase and T(o)

c1cnc2c(c1)ccc1cccnc12 [1,10-phenanthroline]
activity relative to EDTA, chelating agent in place of EDTA with Zn-MT (hMsrB3; 5 mM): about 40%

O=C(O)CN(CCN(CC(=O)O)CC(=O)O)CC(=O)O [EDTA, ethylenediaminetetraacetic acid]
effect of EDTA by itself on hMsrB3 activity (hMsrB3; EDTA alone): no significant effect
levels of EDTA giving optimal activity (hMsrB3; heated liver S-100 as reducing source): above 2.5 mM
time for removal of zinc from Zn-MT (Zn-MT): less than 10 minutes
zinc removed from Zn-MT (Zn-MT): > 90%

O=C(O)CN(CCOCCOCCN(CC(=O)O)CC(=O)O)CC(=O)O [EGTA]
activity of chelating agent in place of EDTA with Zn-MT (hMsrB3): inactive

NCC[Se][Se]CCN [SeC, selenocystamine]
increase of activity in the presence of SeC (bMsrA; complete Trx system, bMsrA): more than 3 fold
final concentration of SeC at maximal stimulation (hMsrB3; FIG. 7, NADPH and Trx reductase or T as primary reducing agent): 50 µM
stimulation of MsrA activity (MsrA; 5 μM selenocystamine versus 0): 37%
stimulation of MsrA activity (MsrA; 50 μM selenocystamine versus 0): 107%
amount of product (sulindac sulfide) (MsrA; 5 μM selenocystamine): 3.7 picomoles
amount of product (sulindac sulfide) (MsrA; 50 μM selenocystamine): 5.6 picomoles
activity of SeC by itself (Msr enzymes): no activity
stimulation by SeC above the Trx system alone (eMsrA; E. coli enzymes): less than a twofold stimulation
stimulation by SeC (eMsrA; complete Trx system, eMsrA): 10-20%
stimulation by SeC above the Trx system alone (eMsrB [1]; E. coli enzymes): less than a twofold stimulation
stimulation by SeC (eMsrB [1]; complete Trx system, eMsrB): 10-20%

O=C(O)c1ccccc1NN=C(N=Nc1cc(S(=O)(=O)O)ccc1O)c1ccccc1 [zincon]
activity of chelating agent in place of EDTA with Zn-MT (hMsrB3): inactive

CC(=O)N(O)CCCCCNC(=O)CCC(=O)N(O)CCCCCNC(=O)CCC(=O)N(O)CCCCCN [deferoxamine]
activity of chelating agent in place of EDTA with Zn-MT (hMsrB3): inactive

B1: mammalian Trx: reduced mammalian Trx with mammalian Trx reductase; human Trx from Sigma, rat Trx reductase (TR3) (protein, UniProt P10599 2-105, looked up)
Thioredoxin: VKQIESKTAFQEALDAAGDKLVVVDFSATWCGPCKMIKPFFHSLSEKYSNVIFLEVDVDDCQDVASECEVKCMPTFQFFKKGQKVGEFSGANKEKLEATINELV
modifications: with rat Trx reductase
activity with reduced mammalian Trx (hMsrB3; [9]): very poor activity
use of Trx from either source (eMsrB [2]; [9]): efficiently used
use of Trx from either source (eMsrA; [9]): efficiently used
